Results taken from patent US20260191793A1, “HBV SPECIFIC EXOSOMES AND USES THEREOF” (priority 2022, published 2026).

Tests used:
[1] = system: HBV replication in HepDE19 cells; test: Suppression of HBV replication in HepDE19 cells by synthetic gRNA/Cas9 RNPs, one-time transfection (ELISA, real-time PCR, RNAscope); format: cell-based, Hepatitis B virus (HBV); conditions: Tet-free medium 3 days; for HBV mRNA / HBV RNA level (RNAscope) / cccDNA level / pgRNA level / total HBV DNA level: HepDE19 cells, vs gRNAc; for cccDNA level: one-time transfection; for cccDNA level / pgRNA level / total HBV DNA level: real-time PCR; for HBeAg level / HBsAg level: HepDE19 supernatant, ELISA, vs scrambled gRNAc
Protocol: The HepDE19 cell line is tetracycline-controlled HBV stable cells maintained in the presence of 500 μg/ml G418 and 1 μg/ml tetracycline (Tet). Upon withdrawing Tet from the culture fluid of HepDE19 cells, pgRNA transcription, HBV DNA replication, cccDNA formation, and HBV e antigen (HBeAg) production gradually increase in a time-dependent manner. To induce HBV replication, the cells were cultured in a Tet-free medium for 0-10 days, followed by measuring the expression of HBV antigens, HBV cccDNA, and pgRNA using methods previously described. For cell transfection, HepDE19 cells were cultured in Tet-free medium for 2 days. The gRNA/Cas9 RNPs and Lipofectamine CRISPRMAX reagents were prepared in two separate tubes following the manufacturer's instructions. Briefly, 125 ng gRNA, 500 ng GeneArt Platinum Cas9 nuclease, and 1 μl Cas9 Plus reagents were mixed in one tube, and 1.5 μl Lipofectamine CRISPRMAX reagent was added in a separate tube. The gRNA/Cas9 RNP solution was then transferred to the tube containing the Lipofectamine CRISPRMAX solution. The mixture was vortexed and incubated at 25° C. for 10 min to form the gRNA/Cas9 RNP/Lipofectamine CRISPRMAX complex. Meanwhile, HepDE19 cells were seeded in a 24-well plate at 2.0×10^5 cells per well. The gRNA/Cas9 RNP/Lipofectamine CRISPRMAX complex was then added directly to the cell suspension, and the cells were incubated for 72 h, followed by assessing HBV replication with Tet-free medium as described above.
The levels of HBsAg and HBeAg in the supernatants of cell cultures were determined by ELISA (Cat #KA0286 and NBP2-600029, Novus Biologicals, Littleton, CO) according to the manufacturer's protocol. The optical density of antigen levels was measured at 450 nm using a microplate spectrophotometer. The samples were run in triplicate, and the experiments were repeated at least three times.
Total RNA was extracted from the cell pellets by the RNeasy Mini kit (Cat #74104, QIAGEN, Germantown, MD), and 1 μg RNA was converted to cDNA using the Applied Biosystems High-Capacity cDNA Reverse Transcription Kit (Cat #43-688-14, ThermoFisher, Waltham, MA). Quantitative real-time PCR (real-time-qPCR) was performed using iTaq Universal SYBR Green Supermix (Cat #1725124, Bio-Rad, Hercules, CA). The PCR primers were: HBV mRNA forward, 5′-[…]-3′ (SEQ ID NO: 52), reverse, 5′-[…]-3′ (SEQ ID NO: 53); HBV pgRNA forward 5′-[…]-3′ (SEQ ID NO: 54), reverse 5′-[…]-3′ (SEQ ID NO: 55); and GAPDH forward 5′-[…]-3′ (SEQ ID NO: 56), reverse 5′-[…]-3′ (SEQ ID NO: 57). The gene expression levels were determined by the […] method and values were normalized to GAPDH expression as an internal control.
Total and protein-free HBV DNAs were extracted from whole cell lysate using the Hirt DNA method according to a previously published protocol. For HBV cccDNA analysis, the protein-free DNA was treated with 10 units of T5 exonuclease (NEB) at 37° C. for 30 min, followed by 95° C. for 5 min, and diluted 4-fold with nuclease-free water. Next, the cccDNA was cleaned with a DNA clean and concentrator kit (ZYMO Research, Irvine, CA) and used for PCR. HBV total DNA and cccDNA were analyzed by real-time PCR using a TaqMan PCR assay. The primers and probe used to amplify HBV total DNA were: HBV total DNA forward: 5′-[…]-3′ (SEQ ID NO: 58), reverse 5′-[…]-3′ (SEQ ID NO: 59), and internal probe: 5′-FAM-[…]-TAMRA-3′ (SEQ ID NO: 60). The primers and probe used to amplify HBV cccDNA (Genotype D, subtype ayw) were: forward: 5′-[…]-3′ (SEQ ID NO: 61), reverse 5′-[…]-3′ (SEQ ID NO: 62), and internal probe 5′-FAM-[…]-TAMRA-3′ (SEQ ID NO: 63). The PCR reactions were performed in 20 μl volumes and contained 2 μl DNA. The PCR conditions were: 95° C. for 10 min, followed by 45 cycles of 95° C. for 15 s and 64° C. for 30 s. The DNA levels were determined by the […] method and values were normalized to the control group. […]

HBV cccDNA = test: HBV-infected HepG2-NTCP cells incubated with exosomes packaged with gRNA/Cas9 RNPs, HBV cccDNA; format: cell-based, Hepatitis B virus (HBV); conditions: delivery by engineered exosomes, 3 days (1×10^8 particles packaged with 40 μM gRNA/Cas9 RNPs)
Protocol: HepG2-NTCP cells were infected for 6 days with the supernatants of HepDE19 cells. Next, HepG2-NTCP cells were transfected for 3 days with gRNA5, gRNA9, gRNA5+gRNA9, or gRNAc RNPs (FIG. 4A) or incubated with exosomes carrying gRNA5, gRNA9, gRNA5+gRNA9, or gRNAc RNPs (1×10^8 particles packaged with 40 μM gRNA/Cas9 RNPs) (FIG. 4B), followed by measuring HBV cccDNA.
To test whether the synthetic gRNA/Cas9 can reduce newly formed HBV cccDNA in HepG2-NTCP cells, the cells with HBV particle-containing supernatants from HepDE19 cells (supernatants harvested 6 days after culture in Tet-free media) were infected. The HepG2-NTCP cells were infected with HBV particles for 6 days and then transfected with gRNA5, gRNA9, gRNA5 plus gRNA9 (in combination), or gRNAc RNPs for 3 days, followed by measuring HBV cccDNA. In another experiment, the infected HepG2-NTCP cells were incubated for 3 days with exosomes packaged with gRNA5, gRNA9, gRNA5 plus gRNA9 (in combination), or gRNAc RNPs, followed by measuring HBV cccDNA.

Sequence | HBV mRNA / HBV RNA level (RNAscope) [1] | cccDNA level [1] | pgRNA level [1] | total HBV DNA level [1] | HBeAg level [1] | HBsAg level [1] | HBV cccDNA levels (HBV cccDNA)
GGTCTCCATGCGACGTGCAGNGG [gRNA9] | significant decreases | significant decreases | significant decreases | significant decreases | significant decreases | significant decreases | significantly reduced
GTTATCGCTGGATGTGTCTGNGG (guide GUUAUCGCUGGAUGUGUCUGNGG; complexed with Cas9 protein, chemistry not fully specified) [gRNA5, tested as synthetic gRNA/Cas9 RNP] | significant decreases | significant decreases | significant decreases | significant decreases | significant decreases | significant decreases | significantly reduced
